Values of other authors, collected in patent US9421268B2, “Pediatric oral liquid compositions containing nepadutant” (LABORATORI GUIDOTTI S.P.A., priority 2012, dated 2016).
Bridge positions count the residues as written; N and C are the ends. Square brackets hold non-standard residues; d marks the D form. Peptide text beside a SMILES is read from it. * marks the point of attachment. NH(β-GlcNAc) = CC(=O)N[C@@H]1[C@@H](O)[C@H](O)[C@@H](CO)O[C@H]1N*; Dap = NC[C@H](N)C(=O)O

Experiments:
NK2 receptors = biological target: T1, NK2 receptors (Rattus norvegicus, UniProt P16610); settings: oral, new born rats, basal parameters not altered; cited from earlier work
T1 construct: from tissue; host or cells: intestine of new born rats (in vivo)
T1 sequence (P16610 1-390): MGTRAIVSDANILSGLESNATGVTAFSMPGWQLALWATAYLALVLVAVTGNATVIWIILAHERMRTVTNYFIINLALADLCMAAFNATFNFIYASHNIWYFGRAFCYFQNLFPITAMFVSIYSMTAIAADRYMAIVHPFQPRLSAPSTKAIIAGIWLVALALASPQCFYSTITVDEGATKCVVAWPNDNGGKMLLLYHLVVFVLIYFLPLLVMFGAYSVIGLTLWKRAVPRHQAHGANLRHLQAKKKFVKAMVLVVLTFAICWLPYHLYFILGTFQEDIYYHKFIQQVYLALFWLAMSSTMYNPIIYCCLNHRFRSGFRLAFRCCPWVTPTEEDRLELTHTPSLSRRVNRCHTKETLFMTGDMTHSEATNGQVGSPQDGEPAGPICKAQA

hyperalgesia = settings: new born rats; cited from earlier work
[1] = in vivo; cited from earlier work

## CC(=O)N[C@@H]1[C@@H](O)[C@H](O)[C@@H](CO)O[C@H]1NC(=O)C[C@@H]1NC(=O)[C@H](CC(C)C)NC(=O)[C@@H]2CNC(=O)C[C@H](NC1=O)C(=O)N[C@@H](Cc1c[nH]c3ccccc13)C(=O)N[C@@H](Cc1ccccc1)C(=O)N2 [Nepadutant, [N^4-(2-acetylamino-2-deoxy-β-D-glucopyranosyl)-L-asparaginyl-L-α-triptophan-L-phenylalanyl-L-2,3-diaminopropio-nil-L-leucil]-C-4.2-N-3.5-lattame-C-1.6-N-2.1-lattame] (cyclo(D(NH(β-GlcNAc))DWF[Dap]L); lactam 2-5)
NK2 receptors
  time after administration up to which the increase in intestinal transit is blocked: up to 24 hours
hyperalgesia
  efficacy in a model of hyperalgesia: effective
[1]
  oral absorption: absorbed
